{"source": "paper PMC8765320", "about": "“Identification of a Proteasome-Targeting Arylsulfonamide with Potential for the Treatment of Chagas’ Disease” (Antimicrobial Agents and Chemotherapy, 2022)", "key": {"T. cruzi epimastigotes": {"tested_on": "T. cruzi epimastigotes", "assay": "T. cruzi epimastigote drug sensitivity assay (resazurin)", "type": "cell-based, Trypanosoma cruzi", "settings": "for EC50: Trypanosoma cruzi", "description": "To examine the effects of test compounds on the growth of T. cruzi epimastigotes, mid-log-phase parasites were seeded into 96-well plates at a cell density of 5 × 10^5 cells ml^−1. Cells were exposed to test compounds over a range of concentrations (2-fold serial dilutions). Cells were incubated for 4 days, and then 20 μl of 2.5 mM resazurin was added to each well, before measuring the fluorescence (excitation, 528 nm; emission, 590 nm), following a further 24 h of incubation. […] In this equation, [I] represents the inhibitor concentration, and m is the slope factor. Experiments were repeated at least two times, and the data are presented as means plus the standard deviations."}, "[1]": {"tested_on": "L. donovani axenic amastigote", "assay": "L. donovani axenic amastigote drug sensitivity assay", "type": "cell-based", "settings": "Leishmania donovani, weighted mean, n ≥ 3, read-out: Mean compound 1 EC50 ± SD", "description": "(§1) L. donovani promastigote ([35]), axenic amastigote ([25]), and T. brucei bloodstream form ([36]) drug sensitivity assays were carried out as previously described. HepG2 monolayers were washed twice in PBS, detached with 0.05% trypsin/EDTA, and then diluted with fully supplemented MEM growth medium. Cells were pelleted at 80 × g for 5 min and resuspended in fully supplemented growth medium. Cells were seeded into 96-well plates (5 × 10^4/well) and allowed to adhere prior to exposure to test compounds. Plates were incubated at 37°C in the presence of 5% CO2 for 72 h. After incubation, resazurin (20 μl of a 2.5-mg/ml^−1 stock solution) was added to each well, followed by incubation for a further 2 h prior to fluorescence being read as described above."}, "T. brucei BSF": {"tested_on": "T. brucei BSF", "assay": "T. brucei bloodstream form drug sensitivity assay", "type": "cell-based", "settings": "Trypanosoma brucei, weighted mean, n ≥ 3, read-out: Mean compound 1 EC50 ± SD", "description": "as §1"}, "[2]": {"tested_on": "T. cruzi malic enzyme (cTcME)", "assay": "Malic enzyme assay in clarified epimastigote lysates (NADPH production, 340 nm)", "type": "biochemical, Trypanosoma cruzi", "description": "Malic enzyme (ME) catalyzes the oxidative decarboxylation of malate to pyruvate with the concomitant reduction of NAD(P)^+ to NAD(P)H. In light of our TPP studies, we next sought to determine whether the binding of compound 1 to cTcME inhibits enzymatic activity. The ME-dependent production of NADPH was monitored in clarified lysates of T. cruzi epimastigotes at 340 nm after the addition of malate. In the first instance, this assay was validated using ATR-073, an established inhibitor of cTcME ([27]). […] Similarly, preincubation of lysates with 20 μM and 1 μM concentrations of compound 1 inhibited ME activity by 96 and 68%, respectively (Fig. 4C). […] It should be noted that ATR-073 and compound 1 are structurally similar, both being substituted N-phenyl aryl sulfonamides, this common moiety constituting the pharmacophore of this chemical series.\nLogarithmic T. cruzi epimastigotes were harvested (1,690 × g, 10 min, 4°C), washed once in ice-cold phosphate-buffered saline, and resuspended at 2 × 10^9 cells ml^−1 in lysis buffer (10 mM phosphate buffer [pH 7.2], 10 mM EDTA, 5 mM benzamidine, 5 mM phenanthroline, 0.1 mM phenylmethylsulfonyl fluoride) containing 1 mg ml^−1 digitonin, followed by incubation at 28°C for 10 min. The resulting lysate was then centrifuged (13,000 × g, 10 min, 4°C), and the supernatant was harvested and stored on ice. The protein concentration of this clarified lysate was determined by using a standard Bio-Rad protein assay.\nThe activity of malic enzyme was assayed as previously described ([42]), with minor modifications. T. cruzi clarified lysate (30 μl) was added to a reaction mixture (500 μl final volume) containing 50 mM Tris-HCl buffer (pH 7.6), 1 mM MnCl2, and 0.12 mM NADP^+. Reactions were initiated by the addition of 5 mM L-malate. The reduction of NADP^+ was monitored at 340 nm using a UV-2401 spectrophotometer (Shimadzu). To monitor the effect of test compounds on the activity of malic enzyme, compounds (1 and 20 μM) were preincubated for 10 min with the lysate in the reaction mixture. DMSO (0.2%) was used as control. All enzymatic activities were calculated as Δabs min^−1 mg^−1 of protein."}, "[3]": {"tested_on": "L. donovani intramacrophage", "parameters": "method as in Peña et al. (12)", "settings": "ref Peña et al. (12), read-out: Mean compound 1 EC50; cited from earlier work"}}, "note": "Like-named read-outs stand apart in the source and are kept apart here."}
{"molecule": "COc1ccc(NS(=O)(=O)c2cc(-c3cc(C)n[nH]3)ccc2C)cc1OC", "note": "[Compound 1]", "values": [{"measurement": "EC50", "setting": "T. cruzi epimastigotes; T. cruzi epimastigote, weighted mean, n ≥ 3, read-out: Mean compound 1 EC50 ± SD", "result": "3 ± 0.08", "unit": "µM"}, {"measurement": "EC50", "setting": "T. cruzi epimastigotes; WT promastigotes (so in the source), Fig. 2B, one biological replicate, read-out: EC50", "result": "0.7 ± 0.01", "unit": "µM"}, {"measurement": "EC50", "setting": "T. cruzi epimastigotes; cell line Wild type, read-out: Mean EC50 ± SD", "result": "3.3 ± 0.08", "unit": "µM"}, {"measurement": "EC50", "setting": "T. cruzi epimastigotes; read-out: Mean EC50 ± SD, cell line ME OE (cTcME overexpressing)", "result": "5 ± 0.11", "unit": "µM"}, {"measurement": "EC50", "setting": "T. cruzi epimastigotes; read-out: Mean EC50 ± SD, cell line RES I (compound 1-resistant, β5 D225N)", "result": "61 ± 1", "unit": "µM"}, {"measurement": "EC50", "setting": "T. cruzi epimastigotes; read-out: Mean EC50 ± SD, cell line RES II (compound 1-resistant, β5 D225N)", "result": "54 ± 1", "unit": "µM"}, {"measurement": "EC50", "setting": "T. cruzi epimastigotes; read-out: Mean EC50 ± SD, cell line RES III (compound 1-resistant, β5 D225N)", "result": "61 ± 0.7", "unit": "µM"}, {"measurement": "EC50", "setting": "T. cruzi epimastigotes; read-out: Mean EC50 ± SD, cell line RES IV (compound 1-resistant, no proteasome mutation)", "result": "31 ± 2", "unit": "µM"}, {"measurement": "EC50", "setting": "T. cruzi epimastigotes; read-out: Mean EC50 ± SD, cell line RES V (compound 1-resistant, β4 I27T)", "result": "70 ± 2", "unit": "µM"}, {"measurement": "EC50", "setting": "T. cruzi epimastigotes; read-out: Mean EC50 ± SD, cell line Res I-β5 OE (β5 WT overexpressed in RES I)", "result": "13 ± 0.8", "unit": "µM"}, {"measurement": "EC50", "setting": "T. cruzi epimastigotes; read-out: Mean EC50 ± SD, cell line β4 F24L/I29M (CRISPR-edited)", "result": "> 50", "unit": "µM"}, {"measurement": "EC50", "setting": "T. cruzi epimastigotes; read-out: Mean EC50 ± SD, cell line β5 D225N-OE (overexpressing mutated β5)", "result": "27 ± 1", "unit": "µM"}, {"measurement": "EC50", "setting": "T. cruzi epimastigotes; resistant clone I, Fig. 2B, one biological replicate, read-out: EC50", "result": "23 ± 4", "unit": "µM"}, {"measurement": "EC50", "setting": "T. cruzi epimastigotes; resistant clone II, Fig. 2B, one biological replicate, read-out: EC50", "result": "16 ± 0.3", "unit": "µM"}, {"measurement": "EC50", "setting": "T. cruzi epimastigotes; resistant clone IV, Fig. 2B, one biological replicate, read-out: EC50", "result": "11 ± 1", "unit": "µM"}, {"measurement": "EC50", "setting": "T. cruzi epimastigotes; resistant clone V, Fig. 2B, one biological replicate, read-out: EC50", "result": "14 ± 6", "unit": "µM"}, {"measurement": "fold change versus the WT", "setting": "T. cruzi epimastigotes; cell line ME OE", "result": 1, "unit": "fold"}, {"measurement": "fold change versus the WT", "setting": "T. cruzi epimastigotes; cell line RES I", "result": 18, "unit": "fold"}, {"measurement": "fold change versus the WT", "setting": "T. cruzi epimastigotes; cell line RES II", "result": 16, "unit": "fold"}, {"measurement": "fold change versus the WT", "setting": "T. cruzi epimastigotes; cell line RES III", "result": 18, "unit": "fold"}, {"measurement": "fold change versus the WT", "setting": "T. cruzi epimastigotes; cell line RES IV", "result": 9, "unit": "fold"}, {"measurement": "fold change versus the WT", "setting": "T. cruzi epimastigotes; cell line RES V", "result": 21, "unit": "fold"}, {"measurement": "fold change versus the WT", "setting": "T. cruzi epimastigotes; cell line Res I-β5 OE", "result": 4, "unit": "fold"}, {"measurement": "fold change versus the WT", "setting": "T. cruzi epimastigotes; cell line β4 F24L/I29M", "result": "> 15", "unit": "fold"}, {"measurement": "fold change versus the WT", "setting": "T. cruzi epimastigotes; cell line β5 D225N-OE", "result": 8, "unit": "fold"}, {"measurement": "susceptibility of CRISPR-edited epimastigotes", "setting": "T. cruzi epimastigotes; β4 F24L and I29M, at all of the concentrations tested", "result": "refractory"}, {"measurement": "EC50", "setting": "[1]", "result": "0.7 ± 0.1", "unit": "µM"}, {"measurement": "EC50", "setting": "T. brucei BSF", "result": "0.3 ± 0.013", "unit": "µM"}, {"measurement": "reduction in ME activity", "setting": "[2]; preincubation of lysates with 1 μM", "result": 68, "unit": "%"}, {"measurement": "reduction in ME activity", "setting": "[2]; preincubation of lysates with 20 μM", "result": 96, "unit": "%"}, {"measurement": "EC50", "setting": "[3]", "result": 8, "unit": "µM"}]}
